Measured values reported in a melting point compilation (Tetko et al.).

First: CC(C)(C)CC(=O)OCC(=O)C1(O)CCC2C3CCC4=CC(=O)CCC4(C)C3C(O)CC21C (stereo not drawn)
Second: CC1(C)OC2CC3C4CCC5=CC(=O)C=CC5(C)C4(F)C(O)CC3(C)C2(C(=O)CO)O1 (stereo not drawn)
The melting point of the first is lower: 168 °C for the first, 293 °C for the second.

First: OCc1ccc(CN2CCOCC2)cc1
Second: ClCc1ccc(Br)cc1
The melting point of the first is higher: 94 °C for the first, 50 °C for the second.

Going from `CCSc1nnc(NC(=O)C(F)(F)C(F)(F)C(F)(F)C(F)(F)C(F)(F)C(F)(F)C(F)(F)C(F)(F)F)s1` to `Nc1cccc(C(c2cccc(N)c2)(C(F)(F)F)C(F)(F)F)c1`, the melting point falls from 131 °C to 86 °C.

Compared with `COc1ccccc1-c1nnc2n1NC(c1ccccc1)S2` (stereo not drawn), `O=C1OC(c2ccccc2)Cc2ccccc21` (stereo not drawn) is lower in melting point: 208 °C for the first, 88 to 90 °C for the second.

First: COC(=O)c1sccc1S(=O)(=O)Cl
Second: COC(=O)c1cncn1C
The melting point of the first is higher: 62 to 66 °C for the first, 57 °C for the second.

Compared with `O=C1CCC(=O)N1CN1C(=O)C(=Cc2ccco2)SC1=S`, `CCOC(=O)c1ccc(N2C(=O)CCC2=O)cc1` is lower in melting point: 166 °C for the first, 158 to 160 °C for the second.

First: NC(=O)c1cccc(C(N)=O)c1
Second: O=C(O)c1cccc(-n2cccn2)c1
The melting point of the first is higher: 280 °C for the first, 154 to 156 °C for the second.

Going from `Nc1ccc(N)c(N)c1` to `Nc1ccc(/C=C\c2ccc(N)cc2)cc1`, the melting point rises from 97.3 °C to 121 °C.

Going from `COc1ccc2c3c1OC1CC(O)C=CC31CCN(C)C2` (stereo not drawn) to `CCC1CN2CCC1CC2C(O)c1ccnc2ccc(OC)cc12` (stereo not drawn), the melting point rises from 126 °C to 172 °C.

Compared with `CC(C)=C1C2C=CC1c1ccccc12`, `CC(C)=NNc1ccccc1` is lower in melting point: 92 °C for the first, 42 °C for the second.

First: CCO[C@H]1OC(C(N)=O)=CC[C@H]1Br
Second: CCOC(=O)C(C#N)=Cc1ccc(-c2ccccc2)o1
The melting point of the first is higher: 141 to 142 °C for the first, 116 to 117 °C for the second.

`CCOC(=O)c1sc2nc(C)cc(C)c2c1N` and `Cc1cc(C)c(C(=O)O)c(C)n1` cannot be ordered by melting point: 157 to 158 °C for the first, 130 to 160 °C for the second.

First: Cn1cnc(C=O)c1
Second: CN1C(=O)CC[C@H]1c1cccnc1
The melting point of the first is higher: 68 to 69 °C for the first, 41 °C for the second.

First: CNC1CC2OC(C)(C1OC)n1c3ccccc3c3c4c(c5c6ccccc6n2c5c31)C(=O)NC4 (stereo not drawn)
Second: CC12CCC(C(C(=O)c3cccc4ccccc34)C1=O)C2(C)C (stereo not drawn)
The melting point of the first is higher: 270 °C for the first, 104 °C for the second.

Going from `CCCCNC(=O)NNC(=O)OCC` to `CCCCOC(=O)c1ccccc1C(=O)O`, the melting point falls from 97 °C to 73.5 °C.

First: CC1(C)CC(O)CC(C)(CN)C1 (stereo not drawn)
Second: CC1CCC(C)(CO)C1(C)C (stereo not drawn)
The melting point of the first is lower: 45.5 °C for the first, 94 °C for the second.

First: N#CCc1ccc2c(c1)OCO2
Second: N#CCSc1ccc(Cl)cc1
The melting point of the first is lower: 43 to 45 °C for the first, 80 °C for the second.

First: CCC(C)Nc1c([N+](=O)[O-])cc(C(C)(C)C)cc1[N+](=O)[O-] (stereo not drawn)
Second: CC(C)(C)NC(=S)c1cc(C(C)(C)C)c(O)c(C(C)(C)C)c1
The melting point of the first is lower: 60 °C for the first, 203 to 204 °C for the second.

First: Cc1[nH]c2ccccc2c1CC(=O)O
Second: O=C(O)c1cc(=O)c2ccccc2o1
The melting point of the first is lower: 200 °C for the first, 260 °C for the second.

Compared with `O=C1OC(=O)c2c(Cl)cccc21`, `Cc1cccc2c1C(=O)NC2=O` is higher in melting point: 123 to 126 °C for the first, 183 to 189 °C for the second.

Going from `CCOC(=O)C(C(=O)OCC)=C(C(=O)OCC)C(=O)OCC` to `CC(=O)OCCOCCOCCOC(C)=O`, the melting point falls from 58 °C to -50 °C.

First: COC(=O)c1cc2ccccc2cc1C(=O)OC
Second: COC(=O)c1cc(C)n(CN(Cn2nc(C(=O)OC)cc2C)c2ccccc2)n1
The melting point of the first is lower: 49 °C for the first, 124 to 126 °C for the second.

First: O=S(O)c1ccc(Cl)cc1
Second: O=C(O)c1cscc1S(=O)(=O)c1ccc(Cl)cc1
The melting point of the first is lower: 99 °C for the first, 214 to 216 °C for the second.

Going from `Cc1cc[nH]c1` to `Cc1c[nH]c(-c2ccccc2)n1`, the melting point rises from -48.4 °C to 175 °C.

First: Oc1c2cccc1Cc1cccc(c1O)Cc1cccc(c1O)Cc1cccc(c1O)Cc1cccc(c1O)Cc1cccc(c1O)C2
Second: O=C(Nc1ccc(-c2ccc(NC(=O)c3ccccc3)cc2NC(=O)c2ccccc2)c(NC(=O)c2ccccc2)c1)c1ccccc1
The melting point of the first is higher: 417 to 418 °C for the first, 279 °C for the second.

First: O=C1/C(=N/Nc2ccc(Cl)cc2)C(C(F)(F)F)=NN1c1ccccc1
Second: Cc1cccc(NN=C2C(=O)NN=C2C(F)(F)F)c1
The melting point of the first is higher: 180 °C for the first, 155 °C for the second.

First: CCCCOCCOCCOCCCC
Second: CCCCCCCCCCCCOc1ccccc1OCCCCCCCCCCCC
The melting point of the first is lower: -60 °C for the first, 45 to 48 °C for the second.

First: COc1cc(Br)cc(OC)c1OC
Second: COc1ccc(CCO)cc1OC
The melting point of the first is higher: 78.5 °C for the first, 46 °C for the second.

First: CC(C)(C)N=C=O
Second: CC(C)(C)OC(=O)N1CC[C@H]1C(=O)O
The melting point of the first is lower: 85.5 °C for the first, 105 to 110 °C for the second.

Compared with `CCN(CC)C(=O)c1ccccc1C(=O)N(CC)CC`, `CCN(CC)CCC1(c2ccccc2)C(=O)Oc2ccccc21` (stereo not drawn) is higher in melting point: 36 °C for the first, 43.4 °C for the second.

First: O=C(O)COc1c(F)c(F)c(F)c(F)c1F
Second: O=C1OC(=O)c2c(F)c(F)c(F)c(F)c21
The melting point of the first is higher: 109 °C for the first, 95 °C for the second.

Compared with `CC(CCl)OP(=O)(OC(C)CCl)OC(C)CCl` (stereo not drawn), `CCCCCCl` is lower in melting point: -40 °C for the first, -60 °C for the second.

Compared with `O=CCc1ccccc1`, `O=Cc1ccccc1OCc1c(Cl)cccc1Cl` is higher in melting point: 33.5 °C for the first, 109 to 112 °C for the second.

Compared with `Fc1cc(F)c(F)c(-c2c(F)c(F)cc(F)c2F)c1F`, `COc1ccc(C(=O)c2ccc(Cl)cc2Cl)cc1OC` is higher in melting point: 85 °C for the first, 128 °C for the second.

First: CC(=O)c1csc(-c2ccc(C(F)(F)F)cc2)n1
Second: Cc1nc(-c2cccc(C(=O)O)c2)no1
The melting point of the first is lower: 66 °C for the first, 223 to 225 °C for the second.

Going from `O=C(Oc1ccc(OC(=O)c2ccccc2)cc1)c1ccccc1` to `O=CC=P(c1ccccc1)(c1ccccc1)c1ccccc1`, the melting point rises from 115 °C to 186 °C.

Compared with `c1ccc(C(OC[C@H]2CO2)(c2ccccc2)c2ccccc2)cc1`, `OC(C#CC#CC(O)(c1ccccc1)c1ccccc1Cl)(c1ccccc1)c1ccccc1Cl` (single isomer, unassigned; (+)) is higher in melting point: 98 to 101 °C for the first, 130 to 133 °C for the second.

First: Cc1cccc(Nc2ccccc2)c1
Second: Cc1ccc(S(=O)(=O)NC(=S)Nc2ccccc2)cc1
The melting point of the first is lower: 30 °C for the first, 148 to 149 °C for the second.

Compared with `Cc1ccc(NC(=O)C(C)c2ccc(C)cc2)cc1` (stereo not drawn), `Cc1ccc(S(=O)(=O)OCCCOS(=O)(=O)c2ccc(C)cc2)cc1` is lower in melting point: 105 °C for the first, 90 to 93 °C for the second.

Compared with `CC(CCC(=O)NCC(=O)O)C1CCC2C3C(O)CC4CC(O)CCC4(C)C3CC(O)C12C` (stereo not drawn), `CC(C)C(C)CCC(C)C1CCC2C3CC=C4CC(O)CCC4(C)C3CCC12C` (stereo not drawn) is lower in melting point: 166 °C for the first, 158 °C for the second.

First: C[C@H](Cl)C(=O)O
Second: CS(=O)CCC(N)C(=O)O (racemic)
The melting point of the first is lower: 4 °C for the first, 232 to 234 °C for the second.

First: O=S1(=O)OC(c2ccc(O)c(Cl)c2)(c2ccc(O)c(Cl)c2)c2ccccc21
Second: Oc1ccccc1CNCc1ccccc1O
The melting point of the first is higher: 261 °C for the first, 162 °C for the second.

First: CCOC(=O)c1c(NC(=S)Nc2ccc(OC)cc2)sc2c1CCCC2
Second: COc1ccc(CCC(=O)O)cc1
The melting point of the first is higher: 163 to 165 °C for the first, 104 °C for the second.

First: CC(C)C(N)=NO
Second: CC1(C)SC2C(N)C(=O)N2C1C(=O)O (stereo not drawn)
The melting point of the first is lower: 60 to 61 °C for the first, 198 to 200 °C for the second.

First: Cc1cc(Cl)ccc1OCC(=O)O
Second: COC(=O)[C@@H](N)Cc1ccc(O)cc1
The melting point of the first is lower: 120 °C for the first, 137 °C for the second.

First: O=Cc1cc(O)ccc1[N+](=O)[O-]
Second: O=[N+]([O-])c1ccc2ccccc2c1O
The melting point of the first is higher: 167 °C for the first, 123 to 125 °C for the second.

First: Nc1c[nH]c(=O)[nH]c1=O
Second: O=c1[nH]nc([N+](=O)[O-])c(Cl)c1Cl
The melting point of the first is higher: 300 °C for the first, 184 to 186 °C for the second.

First: CC(=O)O[C@@H]1CC[C@@]2(C)C(CC[C@@H]3[C@@H]2CC[C@@]2(C)[C@H]3CC[C@]2(O)/C=C/c2ccccc2)C1 (stereo partly drawn)
Second: CC12CCC(/C(=C/N(O)c3ccccc3)C1=O)C2(C)C (stereo not drawn)
The melting point of the first is higher: 160 to 164 °C for the first, 106 to 107 °C for the second.

First: O=C1[C@H]2CC[C@@H]1[C@H]1C=C[C@@H]2O1
Second: O=C1CCCc2occc21
The melting point of the first is higher: 97 °C for the first, 60.5 to 61.5 °C for the second.

First: Brc1cccs1
Second: c1csc(-c2cc[nH]n2)c1
The melting point of the first is lower: -10 °C for the first, 97 to 99 °C for the second.

First: c1ccc2cc3c(cc2c1)OCCOCCOCCOCCO3
Second: c1ccc(-c2cc3ccccc3cn2)cc1
The melting point of the first is higher: 117 to 118 °C for the first, 103 °C for the second.

First: CC12CCC(C1(C)C)C(CCCc1ccccc1)(C1(CCCc3ccccc3)C(=O)C3(C)CCC1C3(C)C)C2=O (stereo not drawn)
Second: CC1=NN(c2ccccc2)C(=O)C1=C(Br)C1C(=O)N(c2ccccc2)N=C1C (stereo not drawn)
The melting point of the first is higher: 250 °C for the first, 218 to 219 °C for the second.

Compared with `CC(C)(C)c1ccc(CCO)cc1`, `COc1cccc(C(=O)N(NC(=O)c2ccccc2)C(C)(C)C)c1` is higher in melting point: 33 °C for the first, 188 °C for the second.

Going from `Nc1ccccc1/C=C/c1ccccc1` to `NNC(=O)COc1ccc([N+](=O)[O-])cc1`, the melting point rises from 106 °C to 189 °C.

Compared with `CC(O)C(NC(=O)OC(C)(C)C)C(=O)O` (stereo not drawn), `CC(C)(C)OC(=O)N1CCN(c2cc(C(=O)O)ccn2)CC1` is higher in melting point: 79 °C for the first, 174 to 176 °C for the second.

Going from `O=[N+]([O-])c1cnc(NC2=NCCN2)s1` to `O=[N+]([O-])c1ccc(OS(=O)(=O)C(F)(F)F)cc1`, the melting point falls from greater than 250 °C to 52 °C.

Compared with `C=C1C(=O)C23C(OC)CC4C5(C)CCCC4(COC5)C2C(OC(C)=O)CC1C3OC(C)=O` (stereo not drawn), `C=C1C(=O)C23C(OC(C)=O)CC4C5(C)CCCC4(C(O)OC5)C2C(OC(C)=O)CC1C3OC(C)=O` (stereo not drawn) is higher in melting point: 160 °C for the first, 226 °C for the second.

First: C=C(C)CC1(CC)C(=O)NC(=S)NC1=O
Second: C/C(CCc1ccc2c(c1)NC(C)CC2)=N\NC(N)=O (stereo not drawn)
The melting point of the first is higher: 160 °C for the first, 128 °C for the second.

Compared with `C=C1OC(=O)OC1(C)C`, `CC12CCC(C(Br)=C(Br)C1=O)C2(C)C` (stereo not drawn) is higher in melting point: 26 to 30 °C for the first, 103 °C for the second.

Compared with `CC(=O)OCC(OC(C)=O)C(OC(C)=O)C(OC(C)=O)C(OC(C)=O)C(OC(C)=O)OC(C)=O` (stereo not drawn), `CCOC(=O)c1c(SC)nn(C(=O)c2ccc([N+](=O)[O-])cc2)c1N` is higher in melting point: 119 °C for the first, 158 °C for the second.

Going from `Cc1nc(Br)ccc1Br` to `BrC(Br)C(Br)Br`, the melting point falls from 38 °C to 0 °C.

Work on `C1CCC(C(C2CCCCC2)C2CCCCC2)CC1` yielded a melting point of 48 °C.
